Where two headings read alike, the source gives them in different places. Starred links: 1 amine or outer side, 2 acyl side, 3 side chain; linkers in the order of their positions; H or OH if unused. Positions of bridges follow the written chain, without caps; N, C: chain ends. Non-standard residues stand in square brackets, D forms with d. Residues, ends and D or L forms follow the SMILES beside them. *: point of attachment. Orn(4R-OH,5R-OH) = O=C([C@H](C[C@@H](O)[C@@H](O)N[*:3])N[*:1])[*:2]; hTyr(3S-OH,4S-OH) = N[C@H](C(=O)O)[C@H](O)[C@@H](O)c1ccc(O)cc1; Pro(3S-OH,4S-Me) = C[C@H]1CN[C@H](C(=O)O)[C@H]1O; Benzoyl(4-octyl) = CCCCCCCCc1ccc(C(=O)*)cc1; X28 = CCCCCCCC[S+]([O-])c1ccc(C(=O)*)cc1; X25 = CCCCCCCCCCOc1ccc(OCC(=O)*)cc1; X11 = CCCCCCCCOc1ccc(OCC(=O)*)cc1; X21 = CCCCCCCCOc1ccc(CCC(=O)*)cc1; Hyp = O=C(O)[C@@H]1C[C@@H](O)CN1; X15 = CCCCCCCCOc1cccc(CC(=O)*)c1; X29 = CCCCCCCOc1ccc(CCC(=O)*)cc1; X12 = CCCCCCOc1ccc(CCC(=O)*)cc1
Experiments:
Candida albicans A-26 [1] = experiment: Therapeutic activity against Candida albicans A-26 infection in X-irradiated mice, lowest active dose; format: in vivo; conditions: A26, light or radiation study, sc
Procedure: (§1) The results of in vivo tests to evaluate the effectiveness of the compounds of Examples 3 and 4 against an infection caused by Candida albicans A-26 in mice are given in Table 13, where activity is measured by the ED50 value (the dose in mg/kg. required to cure 50% of the test animals). In a separate test, the results of which are also summarized in Table 13, activity is indicated by the lowest dose at which a significant anti-fungal effect is observed. In this test, groups of male albino mice (specific pathogen free), weighing 18 to 20 grams, are infected intravenously with Candida albicans A-26. The animals are X-irradiated 24 hours prior to infection at about 50 roentgens per minute for 8 minutes (400 total dose) to reduce immune responses to the infecting organism. At 0, 4, and 24 hours post infection each group of mice is given graded doses subcutaneously of the test compound as a suspension in 33% polyethylene glycol (PEG)-water. The day of death for each animal is recorded.
(§2) *Dosage Schedules: A. = 40, 20, 15 and 10 mg/kg; Dosages given 0, 4, and
(§3) 24 hours post injection as suspension of test compound in 30% PEGH2
(§4) O. Number of mice receiving test compounds at each dosage level: 6 mice
(§5) per group. Number of mice in control (untreated) group: 10 mice per group

Candida albicans A-26 [2] = experiment: Therapeutic activity against Candida albicans A-26 infection in mice, ED50; format: in vivo; conditions: Candida albicans, A26, sc, doses 0, 4 and 24 hours post infection, increase in survival time vs control, Reed-Muench, read-out: ED50
Procedure: as §1, §2, §3, §4, §5
**As measured by increase in survival time of treated animals versus
control, calculated by method of Reed v Mueuch, American J. Hygiene, 27,

[3] = tested on: Trychophyton mentagrophyes #6; experiment: Agar plate disc diffusion test, MIC per disc; format: cell-based, Trichophyton mentagrophytes; conditions: 0.1M sodium borate, pH 7.5, 24 hours, 30° C., * measurable zones with regrowth of organism around disc
Procedure: (§6) Tables 10 and 11 give the results of the testing in vitro of the compounds of Examples 3 and 4 by agar-plate disc-diffusion methods. In Table 10 activity is measured by the size (diameter in mm) of the observed zone of inhibition of the microorganism produced by the test compound. In Table 11, activity is measured by the minimal inhibitory concentration (MIC) of the substance (μg/disc) required to inhibit growth of the test organism. Table 12 gives the results of the testing in vitro of the p-(n-octyloxy)benzoyl derivative of A30912A nucleus [Formula III, R^1 is p-(n-octyloxy)benzoyl] against five strains of Candida albicans by the agar dilution method. In Table 12 activity is measured by the minimal inhibitory concentration (MIC) of the substance (μg/ml) required to inhibit the test organism.
(§7) ^(a) Compounds were suspended in 0.1M sodium borate solution, pH 7.5.
(§8) The compounds were tested at 20 μg/disc at top level and at twofold
(§9) dilutions until end points were reached. Incubation: 24 hours; 30°
*Measurable zones of inhibition with regrowth of organism around disc.

Candida albicans A-26 [4] = experiment: Agar plate disc diffusion test, MIC per disc; format: cell-based; conditions: 0.1M sodium borate, pH 7.5, 24 hours, 30° C.
Procedure: as §6, §7, §8, §9

[5] = read-out: Lowest Active Dose, X-irradiated mice, subcutaneous at 0, 4 and 24 hours post infection, survival

Row | SMILES | minimal effective dose (Candida albicans A-26 [1]; [5]) [mg/kg] | ED50 (Candida albicans A-26 [2]) [mg/kg] | minimal effective dose (Candida albicans A-26 [1]; X-irradiated mice, subcutaneous at 0, 4 and 24 hours post infection, survival, read-out: Lowest Active Dose) [mg/kg] | MIC [3] [μg/disc] | MIC (Candida albicans A-26 [4]) [μg/disc]
1 | CCCCCCOc1ccc(CCC(=O)N[C@H]2C[C@@H](O)[C@@H](O)NC(=O)[C@@H]3[C@@H](O)[C@@H](C)CN3C(=O)[C@H]([C@@H](C)O)NC(=O)[C@H]([C@H](O)[C@@H](O)c3ccc(O)cc3)NC(=O)[C@@H]3C[C@@H](O)CN3C(=O)[C@H]([C@@H](C)O)NC2=O)cc1 [drawing 171] (X12-[Orn(4R-OH,5R-OH)]T[Hyp][hTyr(3S-OH,4S-OH)]T[Pro(3S-OH,4S-Me)]; lactam 1-C) | 5 | 9.2 | – | – | –
2 | CCCCCCCCOc1cccc(CC(=O)N[C@H]2C[C@@H](O)[C@@H](O)NC(=O)[C@@H]3[C@@H](O)[C@@H](C)CN3C(=O)[C@H]([C@@H](C)O)NC(=O)[C@H]([C@H](O)[C@@H](O)c3ccc(O)cc3)NC(=O)[C@@H]3C[C@@H](O)CN3C(=O)[C@H]([C@@H](C)O)NC2=O)c1 [drawing 177] (X15-[Orn(4R-OH,5R-OH)]T[Hyp][hTyr(3S-OH,4S-OH)]T[Pro(3S-OH,4S-Me)]; lactam 1-C) | 10 | > 40 | – | – | –
3 | CCCCCCCC[S+]([O-])c1ccc(C(=O)N[C@H]2C[C@@H](O)[C@@H](O)NC(=O)[C@@H]3[C@@H](O)[C@@H](C)CN3C(=O)[C@H]([C@@H](C)O)NC(=O)[C@H]([C@H](O)[C@@H](O)c3ccc(O)cc3)NC(=O)[C@@H]3C[C@@H](O)CN3C(=O)[C@H]([C@@H](C)O)NC2=O)cc1 (stereo partly drawn) (X28-[Orn(4R-OH,5R-OH)]T[Hyp][hTyr(3S-OH,4S-OH)]T[Pro(3S-OH,4S-Me)]; lactam 1-C) | – | 56.6 | > 40 | – | –
4 | CCCCCCCOc1ccc(CCC(=O)N[C@H]2C[C@@H](O)[C@@H](O)NC(=O)[C@@H]3[C@@H](O)[C@@H](C)CN3C(=O)[C@H]([C@@H](C)O)NC(=O)[C@H]([C@H](O)[C@@H](O)c3ccc(O)cc3)NC(=O)[C@@H]3C[C@@H](O)CN3C(=O)[C@H]([C@@H](C)O)NC2=O)cc1 (X29-[Orn(4R-OH,5R-OH)]T[Hyp][hTyr(3S-OH,4S-OH)]T[Pro(3S-OH,4S-Me)]; lactam 1-C) | – | – | – | 0.156 | 0.625
5 | CCCCCCCCCCOc1ccc(OCC(=O)N[C@H]2C[C@@H](O)[C@@H](O)NC(=O)[C@@H]3[C@@H](O)[C@@H](C)CN3C(=O)[C@H]([C@@H](C)O)NC(=O)[C@H]([C@H](O)[C@@H](O)c3ccc(O)cc3)NC(=O)[C@@H]3C[C@@H](O)CN3C(=O)[C@H]([C@@H](C)O)NC2=O)cc1 (X25-[Orn(4R-OH,5R-OH)]T[Hyp][hTyr(3S-OH,4S-OH)]T[Pro(3S-OH,4S-Me)]; lactam 1-C) | – | – | – | < 0.156 | 0.156
6 | CCCCCCCCOc1ccc(CCC(=O)N[C@H]2C[C@@H](O)[C@@H](O)NC(=O)[C@@H]3[C@@H](O)[C@@H](C)CN3C(=O)[C@H]([C@@H](C)O)NC(=O)[C@H]([C@H](O)[C@@H](O)c3ccc(O)cc3)NC(=O)[C@@H]3C[C@@H](O)CN3C(=O)[C@H]([C@@H](C)O)NC2=O)cc1 [drawing 136] (X21-[Orn(4R-OH,5R-OH)]T[Hyp][hTyr(3S-OH,4S-OH)]T[Pro(3S-OH,4S-Me)]; lactam 1-C) | – | – | – | 0.156 | 0.078
7 | CCCCCCCCc1ccc(C(=O)N[C@H]2C[C@@H](O)[C@@H](O)NC(=O)[C@@H]3[C@@H](O)[C@@H](C)CN3C(=O)[C@H]([C@@H](C)O)NC(=O)[C@H]([C@H](O)[C@@H](O)c3ccc(O)cc3)NC(=O)[C@@H]3C[C@@H](O)CN3C(=O)[C@H]([C@@H](C)O)NC2=O)cc1 [drawing 133] ({Benzoyl(4-octyl)}-[Orn(4R-OH,5R-OH)]T[Hyp][hTyr(3S-OH,4S-OH)]T[Pro(3S-OH,4S-Me)]; lactam 1-C) | – | – | – | 0.156 | 0.625
8 | CCCCCCCCOc1ccc(OCC(=O)N[C@H]2C[C@@H](O)[C@@H](O)NC(=O)[C@@H]3[C@@H](O)[C@@H](C)CN3C(=O)[C@H]([C@@H](C)O)NC(=O)[C@H]([C@H](O)[C@@H](O)c3ccc(O)cc3)NC(=O)[C@@H]3C[C@@H](O)CN3C(=O)[C@H]([C@@H](C)O)NC2=O)cc1 [drawing 145] (X11-[Orn(4R-OH,5R-OH)]T[Hyp][hTyr(3S-OH,4S-OH)]T[Pro(3S-OH,4S-Me)]; lactam 1-C) | – | – | – | 80 | 0.312
